{"source": "patent US20230277554A1", "about": "“COMPOSITION CONTAINING NICKEL-SUPEROXIDE DISMUTASE AND THE LIKE USEFUL FOR HAIRCARE” (priority 2020, published 2023)", "tested_on": "Cutibacterium acnes", "assay": "Cutibacterium acnes growth inhibition", "assay_type": "cell-based", "description": "Cutibacterium acnes is a troublesome anaerobic pathogen. TUN-828® has the function of forming oxygen internally, so we tried to explore whether such a mechanism can inhibit the growth of Cutibacterium acnes and thereby promote the formation of Staphylococcus epidermidis thus form a micro-ecological environment beneficial to the scalp. […] In 24 hours, TUN-828® can inhibit more than 93% Cutibacterium acnes and more than 99% in 48 hr.", "data": [{"substance": "Nickel Bis (Hydroxy Diphenyl MethyIPyrrolidino Methy) Pyridinediy1 t-Butylisocyano Perchlorate [TUN-828®]", "values": [{"measurement": "inhibition of Cutibacterium acnes", "setting": "24 hours", "value": "more than 93%"}, {"measurement": "inhibition of Cutibacterium acnes", "setting": "48 hr", "value": "more than 99%"}]}]}
